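How tested: cells in 96-well plates exposed to compound for 48 hours at five concentrations. Abbreviation: GI50, concentration required for 50% inhibition of growth.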 Calls of active or inactive are those of the source. Cut-off read from the data, not from the text of the source: active = GI50 up to about 1.1 µM and inactive = higher.
Key:
Test in all cases: DTP human tumour cell line panel, 48 h
[1] = tested on: 786-0
[2] = tested on: A498
[3] = tested on: CCRF-CEM
[4] = tested on: EKVX
[5] = tested on: HOP-62
[6] = tested on: HOP-92
[7] = tested on: HT-29
[8] = tested on: Hs-578T
[9] = tested on: NCI-H23
[10] = tested on: NCI-H522
[11] = tested on: OVCAR-8
[12] = tested on: SF-295
[13] = tested on: SF-539
[14] = tested on: SK-MEL-28
[15] = tested on: SK-MEL-5
[16] = tested on: SNB-75
[17] = tested on: UACC-257
[18] = tested on: UO-31

SMILES	GI50 [1]	GI50 [2]	GI50 [3]	GI50 [4]	GI50 [5]	GI50 [6]	GI50 [7]	GI50 [8]	GI50 [9]	GI50 [10]	GI50 [11]	GI50 [12]	GI50 [13]	GI50 [14]	GI50 [15]	GI50 [16]	GI50 [17]	GI50 [18]
O=C1N/C(=N\N=C\c2ccccc2)C(c2ccccc2)O1 (stereo not given)	47.9 µM (inactive)	99.3 µM (inactive)	12.7 µM (inactive)	66.8 µM (inactive)	65.6 µM (inactive)	> 100 µM (inactive)	53 µM (inactive)	> 100 µM (inactive)	> 100 µM (inactive)	> 100 µM (inactive)	47.5 µM (inactive)	42.5 µM (inactive)	> 100 µM (inactive)	> 100 µM (inactive)	66.8 µM (inactive)	< 0.01 µM (active)	66.1 µM (inactive)	15.9 µM (inactive)
COc1cc(C2c3cc4c(cc3OC(NNC(N)=O)C2C)OCO4)cc(OC)c1O (stereo not given)	2.99 µM (inactive)	3.41 µM (inactive)	2.5 µM (inactive)	> 28.4 µM (inactive)	5.48 µM (inactive)	15.3 µM (inactive)	3.13 µM (inactive)	2.22 µM (inactive)	4.92 µM (inactive)	0.285 µM (active)	4.5 µM (inactive)	1.04 µM (active)	0.933 µM (active)	27.4 µM (inactive)	0.91 µM (active)	0.805 µM (active)	3.19 µM (inactive)	8.04 µM (inactive)
CCCCCCCCCCCCC1NC(=N)NC2(CCCO2)C1C(=O)OC (stereo not given)	4.24 µM (inactive)	23.3 µM (inactive)	2.06 µM (inactive)	17.5 µM (inactive)	7.18 µM (inactive)	5.09 µM (inactive)	1.92 µM (inactive)	2.72 µM (inactive)	4.39 µM (inactive)	3.45 µM (inactive)	4.68 µM (inactive)	9.73 µM (inactive)	4.9 µM (inactive)	5.52 µM (inactive)	5.47 µM (inactive)	3.61 µM (inactive)	4.3 µM (inactive)	15.3 µM (inactive)
COc1cc(C(C[N+](=O)[O-])SC(C)=O)ccc1OCc1ccccc1 (stereo not given)	1.79 µM (inactive)	7.57 µM (inactive)	1.18 µM (inactive)	19.8 µM (inactive)	7.18 µM (inactive)	18.9 µM (inactive)	2.4 µM (inactive)	3.31 µM (inactive)	4.79 µM (inactive)	0.345 µM (active)	5.9 µM (inactive)	2.9 µM (inactive)	2.48 µM (inactive)	2.54 µM (inactive)	9.04 µM (inactive)	11.4 µM (inactive)	5.02 µM (inactive)	4.57 µM (inactive)
CCOC(=O)C(Cl)(NC(=O)c1ccc(F)cc1)C(F)(F)F (stereo not given)	> 100 µM (inactive)	> 100 µM (inactive)	> 100 µM (inactive)	> 100 µM (inactive)	> 100 µM (inactive)	> 100 µM (inactive)	> 100 µM (inactive)	> 100 µM (inactive)	> 100 µM (inactive)	> 100 µM (inactive)	> 100 µM (inactive)	> 100 µM (inactive)	> 100 µM (inactive)	> 100 µM (inactive)	> 100 µM (inactive)	77.3 µM (inactive)	> 100 µM (inactive)	> 100 µM (inactive)
C=C1C(=O)O[C@H]2C/C(C)=C/CC/C(C)=C/CC[C@@](C)(O)[C@@H](I)C[C@@H]12	3 µM (inactive)	17.7 µM (inactive)	1.49 µM (inactive)	7.14 µM (inactive)	16.4 µM (inactive)	2.34 µM (inactive)	6.52 µM (inactive)	5.79 µM (inactive)	0.0501 µM (active)	2.64 µM (inactive)	0.791 µM (active)	18.4 µM (inactive)	4 µM (inactive)	13.6 µM (inactive)	11.8 µM (inactive)	11 µM (inactive)	12.4 µM (inactive)	11.7 µM (inactive)
O=C(O)c1cccc(S(=O)(=O)NCCO)c1	> 100 µM (inactive)	> 100 µM (inactive)	> 100 µM (inactive)	> 100 µM (inactive)	> 100 µM (inactive)	> 100 µM (inactive)	> 100 µM (inactive)	> 100 µM (inactive)	> 100 µM (inactive)	> 100 µM (inactive)	> 100 µM (inactive)	> 100 µM (inactive)	> 100 µM (inactive)	> 100 µM (inactive)	> 100 µM (inactive)	> 100 µM (inactive)	> 100 µM (inactive)	> 100 µM (inactive)
CC12CC3OC(=O)C1COC14OC5(C2C1=O)C(O)(CCC1C4CC2OC24CC=CC(=O)C14C)C(=O)OC35C (stereo not given)	13.2 µM (inactive)	18.8 µM (inactive)	4.1 µM (inactive)	32 µM (inactive)	20.9 µM (inactive)	21.8 µM (inactive)	28.5 µM (inactive)	> 100 µM (inactive)	15.4 µM (inactive)	5.6 µM (inactive)	43.8 µM (inactive)	24.8 µM (inactive)	12.6 µM (inactive)	8.47 µM (inactive)	3.88 µM (inactive)	76.7 µM (inactive)	13 µM (inactive)	16.9 µM (inactive)
O=C(O)C1C2c3ccccc3C(c3ccccc32)C1C(=O)NCC1CC1 (stereo not given)	> 100 µM (inactive)	78 µM (inactive)	31.2 µM (inactive)	71.9 µM (inactive)	68.2 µM (inactive)	70.5 µM (inactive)	71.6 µM (inactive)	63.5 µM (inactive)	47.9 µM (inactive)	29.9 µM (inactive)	55 µM (inactive)	46.2 µM (inactive)	> 100 µM (inactive)	> 100 µM (inactive)	66.8 µM (inactive)	84.5 µM (inactive)	19.1 µM (inactive)	71.4 µM (inactive)
O=C(/C=C/c1ccc2c(c1)OCO2)CC(=O)C(=O)c1c[nH]c2ccccc12	41.9 µM (inactive)	65.5 µM (inactive)	26.7 µM (inactive)	38.5 µM (inactive)	41.6 µM (inactive)	81.7 µM (inactive)	36.3 µM (inactive)	29 µM (inactive)	34.2 µM (inactive)	68.5 µM (inactive)	37.1 µM (inactive)	61.8 µM (inactive)	32.4 µM (inactive)	> 100 µM (inactive)	58.3 µM (inactive)	29.3 µM (inactive)	51.8 µM (inactive)	24.2 µM (inactive)
CNc1ccc(-c2nc3cc(C)ccc3o2)cc1	47.3 µM (inactive)	27.4 µM (inactive)	> 100 µM (inactive)	32.4 µM (inactive)	19.9 µM (inactive)	84.9 µM (inactive)	> 100 µM (inactive)	64.6 µM (inactive)	> 100 µM (inactive)	88.1 µM (inactive)	58.1 µM (inactive)	28.9 µM (inactive)	49.5 µM (inactive)	> 100 µM (inactive)	> 100 µM (inactive)	14.7 µM (inactive)	> 100 µM (inactive)	72.3 µM (inactive)
O=C(CN1C(=O)CC(c2ccccc2)(c2ccccc2)C1=O)N1CCN(CCO)CC1	> 100 µM (inactive)	> 100 µM (inactive)	> 100 µM (inactive)	> 100 µM (inactive)	> 100 µM (inactive)	> 100 µM (inactive)	> 100 µM (inactive)	> 100 µM (inactive)	> 100 µM (inactive)	> 100 µM (inactive)	> 100 µM (inactive)	> 100 µM (inactive)	> 100 µM (inactive)	> 100 µM (inactive)	> 100 µM (inactive)	> 100 µM (inactive)	> 100 µM (inactive)	> 100 µM (inactive)
CN(C)c1ccc2nc(CC(O)(C(F)(F)F)C(F)(F)F)ccc2c1	> 10 µM (inactive)	> 10 µM (inactive)	> 10 µM (inactive)	> 10 µM (inactive)	> 10 µM (inactive)	> 10 µM (inactive)	> 10 µM (inactive)	> 10 µM (inactive)	> 10 µM (inactive)	> 10 µM (inactive)	> 10 µM (inactive)	> 10 µM (inactive)	> 10 µM (inactive)	> 10 µM (inactive)	> 10 µM (inactive)	> 10 µM (inactive)	> 10 µM (inactive)	> 10 µM (inactive)
COc1ccc(OC)c2c1C[C@@H]1C(C#N)N3[C@H](Cc4c(OC)ccc(OC)c4[C@@H]3C)C(=O)N1[C@H]2C (stereo not given in full)	3.01 µM (inactive)	11.2 µM (inactive)	1.9 µM (inactive)	5.77 µM (inactive)	22.5 µM (inactive)	2.06 µM (inactive)	8.05 µM (inactive)	4.42 µM (inactive)	4.5 µM (inactive)	1.68 µM (inactive)	2.38 µM (inactive)	14.9 µM (inactive)	2.5 µM (inactive)	3.03 µM (inactive)	1.75 µM (inactive)	1.08 µM (active)	2.51 µM (inactive)	2.25 µM (inactive)
O=C(c1ccccc1)C(Nc1ccc2ccccc2c1)c1ccccc1 (stereo not given)	36.7 µM (inactive)	21.3 µM (inactive)	13.7 µM (inactive)	17.6 µM (inactive)	36.6 µM (inactive)	41.7 µM (inactive)	24.5 µM (inactive)	40.2 µM (inactive)	24.4 µM (inactive)	6.98 µM (inactive)	42 µM (inactive)	24.7 µM (inactive)	54.2 µM (inactive)	49.7 µM (inactive)	16.9 µM (inactive)	33.5 µM (inactive)	15.3 µM (inactive)	> 65 µM (inactive)

Source: ChEMBL document CHEMBL1201862, “PubChem BioAssay data set” (2004)
